Experimental data from US20130295578A1, “METHODS FOR SCREENING FOR DRUG RESISTANCE IN CANCER TREATMENT” (TRUSTEES OF DARTMOUTH COLLEGE, priority 2011, published 2013).

What was measured:
[1] = test system: BT474 breast cancer cells; details: 3D culture, trastuzumab resistance; cited from earlier work
[2] = test system: COLO-357 cells; details: for EGF/TGF-β1-induced growth stimulation: 1 nM EGF + 100 pM TGF-β1, inhibitor pre-incubated or added concomitantly
Method: An equal volume of cell suspension and ice-chilled 6% Matrigel™ (BD biosciences, San Jose, Calif.) in complete medium (RPMI 1640 supplemented with 5% FBS and 1× penicillin/streptomycin) were mixed and dispensed at: 5-15×10^3 cells in 1000 μl per well of 12-well plates or 3-10×10^3 cells in 200 μl per well of 48-well plates on top of a solidified 1% noble agar layer (Difco, Sparks, Md.). Ice-chilled 3% Matrigel™ in complete medium was used to replenish medium every 4 days and/or to administer compounds.
After 4 hours of staining with 2.5 mg/ml of 3-(4,5-Dimethylthiazol-2-yl)-2,5-diphenyltetrazolium bromide (MTT; Sigma) in PBS, plates were scanned and images were stored as high resolution (1200 dpi) grayscale TIFF files. Signal intensity and density was quantified using Image-Pro Plus (Media Cybernetics, Bethesda, Md.).

[3] = test system: PK-1 and PK-2 cells; test: modified extracellular matrix-based 3D culture; assay type: cell-based, murine; details: kinase inhibitor present
Method: (§1) Murine pancreatic tissue from euthanized animals was mechanically minced and digested with 2 mg/ml of Collagenase Type 4 (Worthington, Lakewood, N.J.) for 1 hour at 37° C. For ex vivo primary cell culture, 10,000 cells per well of 48-well plate were immediately plated in 3% Matrigel™ as described above, except for this modification: RPMI 1640 medium was supplemented with 20% FBS, 1× penicillin/streptomycin and 25 ng/mL amphotericin B (MP Biomedicals, LLC, Solon, Ohio). For secondary cell cultures from tumor lesions of mouse models, cancer (epithelial) cells were selected by carrying out several rounds of diluted plating in RPMI 1640 medium, with a gradual decrease concentration of FBS from 20% to 5%: PK-1 and RInk-1, as previously reported (Seeley et al. 2009. Cancer Res. 69:422-430), or after subcutaneous passage in nude mice (PK-2 and RInk-2). Experiments were conducted with epithelial cells within less than 20 passages.

[4] = test system: PK-2 cells; test: modified extracellular matrix-based 3D culture, MTT readout; assay type: cell-based, murine; details: for EGF/TGF-β1-induced growth stimulation: 1 nM EGF + 100 pM TGF-β1, inhibitor pre-incubated or added concomitantly; for chemoresistance to treatment: PK-2 compared with COLO-357, at the tested concentrations
Method: as §1

[5] = test system: PK; p53Δ/Δ cells; test: ex vivo primary cell 3D culture of PDAC mouse model tumor cells; assay type: cell-based; details: p53Δ/Δ tumor-derived cells
Method: (§2) To assess tissue response to different chemotherapeutic treatments, tumor tissues were digested with collagenase to obtain single cell suspensions for accurate cell counting and equal cell seeding in replica experimental wells.
as §1

[6] = test system: PK; p16/p19Δ/Δ cells; test: as above; assay type: cell-based; details: p16/p19Δ/Δ tumor-derived cells
Method: as §2, §1

[7] = test system: PDAC patients; details: cited from earlier work
[8] = test system: COLO-357 cells; test: culture on tissue culture-treated plastic plates, morphology and immunostaining; assay type: cell-based, human
Text: (§3) To further investigate the effects of extracellular matrix components on integration of growth factor signals in both human and murine pancreatic cancer cells, cellular responses were compared on conventional tissue culture-treated plastic plates and in 3% Matrigel™. […] Thus, cells loosened their tightly packed cobble-stone like arrangement, became more motile and acquired an elongated fibroblast-like shape. […] This effect was not observed in T3M4 cells, whereas the distribution of the cytoskeleton protein tubulin (control marker) was uniform across all epithelial structures. Increased vimentin expression was not observed in these cellular structures.
(§4) Cells cultured in 3% Matrigel™ were collected 4 days after treatment on a 40 μm sieve mesh using chilled PBS to loosen Matrigel™ matrix, fixed in 10% formalin for 1 hour and coated with melted 1% noble agar. Agar plugs were fixed for up to 4 hours in formalin and paraffin-embedded in fully-automated Shandon Pathcentre instrument as described previously (Sempere et al. 2010. Clin Cancer Res. 16:4246-4255). For freshly fixed cell assays, cells were seeded at 2-5×10^3 per well on 48-well plates, treated after 24 hours and collected 48 hours after treatments by rinsing with chilled PBS and fixed in 10% formalin for 30 minutes. Four μm sections of cellular structures in paraffin-embedded or freshly fixed cells were immunostained using antibody conditions and sequential tyramide signal amplification reactions as previously described (Sempere et al. 2010. Clin Cancer Res. 16:4246-4255).

[9] = test system: PK-1, PK-2 and RInk-2 cells; test: modified extracellular matrix-based 3D culture, growth factor stimulation; assay type: cell-based, murine
Method: (§5) To determine how pancreatic cancer cells would integrate potential interactions between EGF and TGF-β1 signals, cells were treated four days after seeding in 3% Matrigel™ with TGF-β1 at a final concentration of 100 pM and/or EGF at 1 nM. […] The growth of ASPC-1, BxPC3 and T3M4 was not affected by TGFB-β1 treatment.
as §1

[10] = test system: PK-2 cells; test: culture on tissue culture-treated plastic plates, morphology and immunostaining; assay type: cell-based, murine
Text: as §3, §4

[11] = test system: COLO-357 cells; test: anchorage-independent growth in soft agar culture; assay type: cell-based, human; details: COLO-357, soft agar
[12] = test system: ASPC-1, BxPC3 and T3M4 cells; test: modified extracellular matrix-based 3D culture, growth factor stimulation; assay type: cell-based, human
Method: as §5

CC(C)(C)n1nc(-c2ccc(Cl)cc2)c2c(N)ncnc21 [PP2]
activation of PI3K/AKT pathway and chemoresistant effects of TGF-β [1]: prevented activation of PI3K/AKT pathway and disrupted chemoresistant effects of TGF-β

C[S+]([O-])c1ccc(-c2nc(-c3ccncc3)c(-c3ccc(F)cc3)[nH]2)cc1 (centres unmarked) [SB203580]
EGF/TGF-β1-induced growth stimulation ([2]; COLO-357, 3D culture): mild inhibitory effect | stimulatory growth effects of EGF/TGF-β1 [3]: mild effect

NC(=O)c1ccc(-c2nc(-c3ccc4c(c3)OCO4)c(-c3ccccn3)[nH]2)cc1 [SB431542]
EGF/TGF-β1-induced growth stimulation ([2]; COLO-357, 3D culture): significantly decreased | EGF/TGF-β1-induced growth stimulation, late inhibitor addition ([2]; COLO-357, inhibitor added 4 days following incubation with EGF/TGF-β1): halted further growth stimulation | EGF/TGF-β1-induced growth stimulation ([4]; PK-2, 3D culture): significantly decreased | EGF/TGF-β1-induced growth stimulation, late inhibitor addition ([4]; PK-2, inhibitor added 4 days following incubation with EGF/TGF-β1): halted further growth stimulation

N#CC(=C(/N)Sc1ccccc1N)/C(C#N)=C(\N)Sc1ccccc1N [U0126]
EGF/TGF-β1-induced growth stimulation ([2]; COLO-357, 3D culture): mild inhibitory effect | protective effects of EGF/TGF-β1 against gemcitabine and cisplatin ([4]; PK-2, 3D culture, concomitant inhibitor treatment): markedly effective only in PK-2 cells | stimulatory growth effects of EGF/TGF-β1 [3]: moderate effect

N.N.[Cl][Pt][Cl] [cisplatin, cis-diamminedichloroplatinum]
number and size of cellular structures in 3D culture [5]: reduced the number and size of cellular structures | number and size of cellular structures in 3D culture [6]: reduced the number and size of cellular structures | chemoresistance to treatment [4]: more chemoresistant

C#Cc1cccc(Nc2ncnc3cc(OCCOC)c(OCCOC)cc23)c1 [erlotinib]
EGF/TGF-β1-induced growth stimulation ([2]; COLO-357, 3D culture): significantly decreased | additional increase in survival ([7]; addition to gemcitabine as first-line PDAC treatment): 12 days | EGF/TGF-β1-induced growth stimulation ([4]; PK-2, 3D culture): significantly decreased

Nc1ccn([C@@H]2O[C@H](CO)[C@@H](O)C2(F)F)c(=O)n1 [gemcitabine]
cytotoxic effect ([2]; human, 4 days, 10 nM): killed most COLO-357 cells | prolongation of life ([7]; PDAC): about 8 weeks | number and size of cellular structures in 3D culture [5]: reduced the number and size of cellular structures | number and size of cellular structures in 3D culture [6]: reduced the number and size of cellular structures | chemoresistance to treatment [4]: more chemoresistant

TGF-β1: transforming growth factor-β isoform 1, used at 100 pM
E-cadherin immunostaining ([2]; COLO-357, 3D culture): reduced membranous localization of E-cadherin | lowest concentration at which morphological changes were observed ([2]; COLO-357, 3D culture): 1 pM | morphology ([2]; COLO-357, 3D culture, 100 pM TGF-β1): profound morphological changes | growth stimulatory effects of EGF ([2]; COLO-357, 3D culture, TGF-β1 added to EGF): greatly enhanced | growth ([2]; COLO-357, 3D culture, growth factor treatment): mild growth stimulatory effects | size of cellular structures under cisplatin or gemcitabine challenge ([2]; COLO-357, growth factor-treated, after 4 and 8 days of incubation): > 5 cells | E-cadherin and vimentin immunostaining ([8]; COLO-357, on plastic, after TGF-β1 treatment): loss of membranous E-cadherin (epithelial marker) and upregulation of intermediate filament vimentin (mesenchymal marker) | TGF-β1 concentration giving limited morphological changes ([8]; COLO-357, plastic culture): 20 pM | TGF-β1 concentration giving overt morphological changes ([8]; COLO-357, plastic culture): 200 pM | morphology ([9]; 100 pM TGF-β1): profound morphological changes | growth ([9]; growth factor treatment four days after seeding): dramatically enhanced the growth | E-cadherin immunostaining ([4]; PK-2, 3D culture): reduced membranous localization of E-cadherin | lowest concentration at which morphological changes were observed ([4]; PK-2, 3D culture): 1 pM | E-cadherin and vimentin immunostaining ([10]; PK-2, on plastic, after TGF-β1 treatment): loss of membranous E-cadherin (epithelial marker) and upregulation of intermediate filament vimentin (mesenchymal marker) | TGF-β1 concentration giving limited morphological changes ([10]; PK-2, plastic culture): 20 pM | TGF-β1 concentration giving overt morphological changes ([10]; PK-2, plastic culture): 200 pM | size and number of colonies [11]: decreased the size and number of colonies | growth promoting effects of EGF ([11]; TGF-β1 added to EGF): antagonized | growth ([12]; 100 pM TGF-β1): not affected | proliferative actions of EGF ([12]; TGF-β1 added to EGF): did not affect
